Laboratory results: patent US20110009379A1, “INDOLINONE COMPOUND” (ASTELLAS PHARMA INC., priority 2008, published 2011)

Tests used:
[1] = system: delay of discharging time induced by loperamide in mice; test: Loperamide induced constipation model (glass bead discharging time); assay type: in vivo; conditions: Mus musculus; mice (Slc:ddY, male), 0.3 mg/kg loperamide subcutaneously, compound orally; read-out: ED50 (amount which suppresses 50% of the delay of discharging time induced by loperamide)
Method: It has been known that loperamide as a μ opioid receptor agonist causes convulsive contraction in intestinal tracts. Thus, a delay in the intestinal transport ability due to loperamide is thought as a constipation IBS model.
Mice (Slc:ddY, five-week old, male) fasted from the previous evening of the experiment. On the day of the experiment, the mice were acclimatized to cages for measurement for 1 hour or more, and 0.3 mg/kg of loperamide was administered subcutaneously. After 30 minutes, a compound to be tested was administered orally, ether anesthesia was applied to the mice immediately thereafter, glass beads having diameter of 3 mm were inserted to 2 cm from anus. The mice were returned to the cages for measurement, and the time from waking to discharging of the glass beads was measured. Furthermore, the compound to be tested was dissolved into 10% DMSO, 10% cremophor, and 80% distillated water.
As a result, it has been recognized that there was a delay in the beads discharging time of the loperamide administration group (vehicle group) in comparison with the loperamide non-administration group (control group).
ED50 values (amount of the compound to be tested which suppresses 50% of the delay of discharging time induced by loperamide) of some of the compounds of the formula (I) are shown in Table 3. In this connection, comparative compound 1 is the same compound as comparative compound 1 in Test Example 4.

gastric emptying of rats = test: Activity to gastric emptying of TRPA1 agonist (phenol red, rats); assay type: in vivo; conditions: Rattus norvegicus; male wistar rats, oral administration, versus control animals; read-out: ED50 (amount which suppresses 50% of gastric emptying)
Source text: When EC cell is stimulated by content of a gastrointestinal tract, 5-HT is secreted. The secreted 5-HT promotes the secretion or motility through a 5-HT receptor present in intestinal nerve plexus or gastrointestinal smooth muscle. The secreted 5-HT is instantly taken into a cell by its specific transporter, and is metabolized by […]. Thus, while it is considerably difficult to directly measure the secreted 5-HT concentration, it has been known that gastric emptying is delayed as a physiological activity through 5-HT in rodents. In order to verify in vivo activity through 5-HT of the compound to be tested, activity to gastric emptying of rats by various TRPA1 agonists was studied.
In the experiment, male wistar rats (body weight 290 to 360 g) were used. The animals were purchased from Japan SLC (Shizuoka). The animals were allowed to drink water freely under a constitutive environment.
5 minutes after the medicine was orally administered, 0.05% phenol red solution (1.5 mL) was orally administered. After 15 minutes, rats were put painlessly to death by cervical vertebral dislocation, their stomachs were exenterated, and phenol red was eluted with 0.1M aqueous NaOH solution (5 mL) from the exenterated stomachs. 20% aqueous trichloroacetic acid solution (0.1 mL) was added to the NaOH solution (0.5 mL), followed by stirring and centrifugation at 15,000 rpm, at 4° C., for 10 minutes. 0.5M aqueous NaOH solution (0.2 mL) was added to the supernatant (0.05 mL), followed by stirring, and absorbance at 560 nm was measured using an absorption spectrometer (spectrometer spectramax M2; Molecular Devices, CA, USA).
A gastric emptying was calculated by the following calculating formula.
Gastric emptying (%)=100−(A/B)×100
A: amount of phenol red remaining in stomach
B: amount of phenol red remaining in stomach just after administering phenol red
ED50 values (amount of the compound to be tested which suppresses 50% of gastric emptying, with respect to the control animals without administering the compound to be tested) of some of the compounds of the formula (I) are shown in Table 2. In this connection, comparative compound 1 and comparative compound 2 are (3E)-1-methyl-3-(2-oxopropyridene)-1,3-dihydro-2H-indol-2-one, and (3E)-3-(2-oxopropyridene)-1-prop-2-in-1-yl-1,3-dihydro-2H-indol-2-one described in Non Patent Document 4 above, and has the following chemical structures, respectively.

O=C(O)/C=C1/C(=O)N(CC2CCCC2)c2c(F)cccc21 [Example 28, (2E)-[1-(cyclopentylmethyl)-7-fluoro-2-oxo-1,2-dihydro-3H-indol-3-ylidene]acetic acid]
ED50 [1]: 0.1 mg/kg
ED50 (gastric emptying of rats): 0.44 mg/kg
